Experimental data as given in ChEMBL document CHEMBL1221363, “Cytotoxicity of new pyrazino[1,2-b]isoquinoline and 6,15-iminoisoquino[3,2-b]3-benzazocine compounds” (2010).

Experiments:
Assay type in all cases: functional
HT-29 = test: Cytotoxicity against human HT-29 cells after 48 hrs by SRB assay; conditions: HT-29, 48 h
A549 = test: Cytotoxicity against human A549 cells after 48 hrs by SRB assay; conditions: A549, 48 h
MDA-MB-231 = test: Cytotoxicity against human MDA-MB-231 cells after 48 hrs by SRB assay; conditions: MDA-MB-231, 48 h; for CC50: read-out: LC50 (the source's name)

SMILES	GI50 (HT-29)	LC50 (HT-29)	TGI (HT-29)	GI50 (A549)	LC50 (concentration causing 50% net cell kill) (A549)	TGI (A549)	GI50 (MDA-MB-231)	TGI (MDA-MB-231)	CC50 (MDA-MB-231)
COc1c(C)c(OC)c(OC)c2c1C[C@H]1[C@@H](OC)N(C(=O)OC(C)C)CC(=O)N1[C@H]2COCc1ccccc1	0.195 µM	0.527 µM	0.273 µM	11.2 µM	> 18.4 µM	> 18.4 µM	12.3 µM	> 18.4 µM	> 18.4 µM
COc1c(C)c(OC)c(OC)c2c1C[C@H]1CN(C(=O)OC(C)(C)C)CC(=O)N1[C@H]2COCc1ccccc1	8.66 µM	> 18.4 µM	> 18.4 µM	8.82 µM	> 19 µM	> 19 µM	14.1 µM	> 19 µM	> 19 µM
COc1c(C)c(OC)c(OC)c2c1C[C@H]1CN(C(=O)OC(C)C)[C@@H](Cc3ccccc3)C(=O)N1[C@H]2COCc1ccccc1	16.3 µM	> 16.3 µM	> 16.3 µM	> 16.6 µM	> 16.6 µM	> 16.6 µM	> 16.6 µM	> 16.6 µM	> 16.6 µM
COc1c(C)c(OC)c(OC)c2c1C[C@H]1CN(C(=O)OC(C)(C)C)[C@@H](Cc3ccccc3)C(=O)N1[C@H]2COCc1ccccc1	9.13 µM	> 16.6 µM	> 16.6 µM	7.3 µM	> 16.2 µM	> 16.2 µM	7.13 µM	10.5 µM	> 16.2 µM
COc1c(C)c(OC)c(OC)c2c1C[C@H]1CN(C)[C@@H](Cc3ccccc3)C(=O)N1[C@H]2COCc1ccccc1	13 µM	> 16.2 µM	> 16.2 µM	12.2 µM	> 18.8 µM	> 18.8 µM	> 18.8 µM	> 18.8 µM	> 18.8 µM
COc1c(C)c(OC)c(OC)c2c1C[C@H]1[C@@H](OC)N(C(=O)OC(C)C)[C@@H](Cc3ccccc3)C(=O)N1[C@H]2COCc1ccccc1	11.3 µM	> 18.8 µM	> 18.8 µM	11.1 µM	> 15.8 µM	> 15.8 µM	12.2 µM	> 15.8 µM	> 15.8 µM
COc1ccc(C[C@H]2C(=O)N3[C@@H](COCc4ccccc4)c4c(c(OC)c(C)c(OC)c4OC)C[C@H]3[C@@H](OC)N2C(=O)OC(C)C)cc1OC	12.3 µM	> 15.8 µM	> 15.8 µM	6.21 µM	> 14.4 µM	> 14.4 µM	9.53 µM	> 14.4 µM	> 14.4 µM
COc1ccc(C[C@H]2C(=O)N3[C@@H](COCc4ccccc4)c4c(c(OC)c(C)c(OC)c4OC)C[C@H]3[C@@H](OC)N2C(=O)OC(C)(C)C)cc1OC	9.38 µM	> 14.4 µM	> 14.4 µM	9.2 µM	> 14.1 µM	> 14.1 µM	> 14.1 µM	> 14.1 µM	> 14.1 µM
COc1cc(C[C@@H]2NCC3=Cc4c(OC)c(C)c(OC)c(OC)c4[C@H](COC(=O)c4cccc5ccccc45)N3C2=O)c(OC)c(C)c1OC	7.64 µM	> 14.1 µM	> 14.1 µM	2.78 µM	> 14.6 µM	> 14.6 µM	8.79 µM	> 14.6 µM	> 14.6 µM
COc1cc(C[C@H]2NC=C3Cc4c(OC)c(C)c(OC)c(OC)c4[C@H](COC(=O)/C=C/c4ccccc4)N3C2=O)c(OC)c(C)c1OC	11.1 µM	> 14.6 µM	> 14.6 µM	6.53 µM	> 15.2 µM	> 15.2 µM	10.6 µM	> 15.2 µM	> 15.2 µM
COc1c(C)c(OC)c(OC)c2c1C[C@H]1[C@H]3c4ccccc4C[C@@H](C(=O)N1[C@H]2COCc1ccccc1)N3C(=O)OC(C)C	12.3 µM	> 15.2 µM	> 15.2 µM	> 16.6 µM	> 16.6 µM	> 16.6 µM	8.32 µM	> 16.6 µM	> 16.6 µM
COc1c(C)c(OC)c(OC)c2c1C[C@H]1[C@H]3c4ccccc4C[C@@H](C(=O)N1[C@H]2CO)N3C(=O)OC(C)C	14 µM	> 16.6 µM	> 16.6 µM	> 19.6 µM	> 19.6 µM	> 19.6 µM	17.6 µM	> 19.6 µM	> 19.6 µM
COc1c(C)c(OC)c(OC)c2c1C[C@H]1N[C@@H]2[C@@H]2Cc3c(OC)c(C)c(OC)c(OC)c3[C@H](COC(=O)c3cccc4ccccc34)N2C1=O	6.67 µM	> 18 µM	> 18 µM	7.32 µM	> 14.6 µM	> 14.6 µM	10.3 µM	> 14.6 µM	> 14.6 µM
COc1c(C)c(OC)c(OC)c2c1C[C@H]1CN(C(=O)OC(C)C)CC(=O)N1[C@H]2COCc1ccccc1	8.32 µM		9.84 µM						
COc1c(C)c(OC)c(OC)c2c1C[C@H]1[C@@H](O)N(C(=O)OC(C)C)CC(=O)N1[C@H]2COCc1ccccc1		> 1.31 µM							
CCCN1CC(=O)N2[C@@H](Cc3c(OC)c(C)c(OC)c(OC)c3[C@@H]2COCc2ccccc2)C1 (relative stereo)	11.2 µM	> 19 µM	> 19 µM	10 µM	> 21.3 µM	> 21.3 µM	16.6 µM	> 21.3 µM	> 21.3 µM
COc1c(C)c(OC)c(OC)c2c1C[C@H]1CN(Cc3ccccc3)CC(=O)N1[C@H]2COCc1ccccc1 (relative stereo)	12 µM	> 21.3 µM	> 21.3 µM	7.16 µM	> 19.4 µM	16.1 µM	11.2 µM	> 19.4 µM	> 19.4 µM
COc1c(C)c(OC)c(OC)c2c1C[C@H]1CN(Cc3ccc4ccccc4c3[N+](=O)[O-])CC(=O)N1[C@H]2COCc1ccccc1 (relative stereo)	4.06 µM	17.8 µM	9.48 µM	> 16.3 µM	> 16.3 µM	> 16.3 µM	8.01 µM	> 16.3 µM	> 16.3 µM
COc1c(C)c(OC)c(OC)c2c1C[C@@H]1N[C@H]2[C@@H]2Cc3c(OC)c(C)c(OC)c(OC)c3[C@H](CO)N2C1=O (relative stereo)	12.3 µM	> 15.1 µM	> 15.1 µM	> 18.9 µM	> 18.9 µM	> 18.9 µM	16.1 µM	> 18.9 µM	> 18.9 µM
COc1c(C)c(OC)c(OC)c2c1C[C@H]1[C@@H]3N[C@@H](Cc4ccccc43)C(=O)N1[C@H]2COC(=O)c1cccc2ccccc12 (relative stereo)	> 18.9 µM	> 18.9 µM	> 18.9 µM	13.3 µM	> 17.3 µM	> 17.3 µM	8.64 µM	> 17.3 µM	> 17.3 µM
COc1c(C)c(OC)c(OC)c2c1C[C@H]1[C@@H]3N[C@@H](Cc4ccccc43)C(=O)N1[C@H]2COC(=O)/C=C/c1ccccc1 (relative stereo)	6.22 µM	> 17.3 µM	> 17.3 µM	1.05 µM	> 18 µM	> 18 µM	15 µM	> 18 µM	> 18 µM
COc1c(C)c(OC)c(OC)c2c1C[C@H]1[C@@H]3c4c(c(OC)c(C)c(OC)c4OC)C[C@H](C(=O)N1C2COC(=O)c1cccc2ccccc12)N3C (relative stereo)	6.88 µM	> 14.6 µM	> 14.6 µM	6.17 µM	> 14.4 µM	> 14.4 µM	7.46 µM	> 14.4 µM	> 14.4 µM
COc1c(C)c(OC)c(OC)c2c1C[C@H]1[C@H]3c4ccccc4C[C@@H]([C@H](C#N)N1[C@H]2CO)N3C (relative stereo)	5.17 µM	> 14.4 µM	> 14.4 µM	5.78 µM	18.7 µM	12 µM	7.65 µM	12.9 µM	18.7 µM
COc1c(C)c(OC)c(OC)c2c1C[C@H]1[C@H](C#N)N3[C@@H](CO)c4c(c(OC)c(C)c(OC)c4OC)C[C@H]3[C@@H]2N1C (relative stereo)	7.12 µM	15.1 µM	10.5 µM	3.43 µM	13.2 µM	8.13 µM	4.7 µM	9.03 µM	14.1 µM
COc1c(C)c(OC)c(OC)c2c1C[C@H]1[C@H]3c4ccccc4C[C@@H]([C@H](C#N)N1[C@H]2COC(=O)/C=C/c1cccc(C(F)(F)F)c1)N3C (relative stereo)	3.25 µM	6.5 µM	4.52 µM	2.32 µM	3.86 µM	2.93 µM	2.47 µM	2.62 µM	2.78 µM
COc1cc2c(cc1O)CCN[C@]21CS[C@@H]2c3c(OC(C)=O)c(C)c4c(c3[C@H](COC1=O)N1[C@@H]2[C@H]2c3c(cc(C)c(OC)c3O)C[C@@H]([C@@H]1O)N2C)OCO4 [TRABECTEDIN]	2.47 µM		2.93 µM	0.00281 µM		0.00315 µM	0.000396 µM	0.00101 µM	0.0017 µM
